{
  "source": "patent US10100045B2",
  "about": "“3-aryl-2H-pyrazolo[4,3-b]pyridine compounds and their use as AMPA receptor modulators” (Janssen Pharmaceutica NV, priority 2016, dated 2018)",
  "data": [
    {"molecular_target": "GluA1o-γ8 (GRIA1o-CACNG8 fusion construct; TARP γ8 dependent AMPA receptor) (Homo sapiens (Human), UniProt P42261+Q8WXS5)", "sequence (P42261 other isoform, or with tags, fused parts or gaps)": "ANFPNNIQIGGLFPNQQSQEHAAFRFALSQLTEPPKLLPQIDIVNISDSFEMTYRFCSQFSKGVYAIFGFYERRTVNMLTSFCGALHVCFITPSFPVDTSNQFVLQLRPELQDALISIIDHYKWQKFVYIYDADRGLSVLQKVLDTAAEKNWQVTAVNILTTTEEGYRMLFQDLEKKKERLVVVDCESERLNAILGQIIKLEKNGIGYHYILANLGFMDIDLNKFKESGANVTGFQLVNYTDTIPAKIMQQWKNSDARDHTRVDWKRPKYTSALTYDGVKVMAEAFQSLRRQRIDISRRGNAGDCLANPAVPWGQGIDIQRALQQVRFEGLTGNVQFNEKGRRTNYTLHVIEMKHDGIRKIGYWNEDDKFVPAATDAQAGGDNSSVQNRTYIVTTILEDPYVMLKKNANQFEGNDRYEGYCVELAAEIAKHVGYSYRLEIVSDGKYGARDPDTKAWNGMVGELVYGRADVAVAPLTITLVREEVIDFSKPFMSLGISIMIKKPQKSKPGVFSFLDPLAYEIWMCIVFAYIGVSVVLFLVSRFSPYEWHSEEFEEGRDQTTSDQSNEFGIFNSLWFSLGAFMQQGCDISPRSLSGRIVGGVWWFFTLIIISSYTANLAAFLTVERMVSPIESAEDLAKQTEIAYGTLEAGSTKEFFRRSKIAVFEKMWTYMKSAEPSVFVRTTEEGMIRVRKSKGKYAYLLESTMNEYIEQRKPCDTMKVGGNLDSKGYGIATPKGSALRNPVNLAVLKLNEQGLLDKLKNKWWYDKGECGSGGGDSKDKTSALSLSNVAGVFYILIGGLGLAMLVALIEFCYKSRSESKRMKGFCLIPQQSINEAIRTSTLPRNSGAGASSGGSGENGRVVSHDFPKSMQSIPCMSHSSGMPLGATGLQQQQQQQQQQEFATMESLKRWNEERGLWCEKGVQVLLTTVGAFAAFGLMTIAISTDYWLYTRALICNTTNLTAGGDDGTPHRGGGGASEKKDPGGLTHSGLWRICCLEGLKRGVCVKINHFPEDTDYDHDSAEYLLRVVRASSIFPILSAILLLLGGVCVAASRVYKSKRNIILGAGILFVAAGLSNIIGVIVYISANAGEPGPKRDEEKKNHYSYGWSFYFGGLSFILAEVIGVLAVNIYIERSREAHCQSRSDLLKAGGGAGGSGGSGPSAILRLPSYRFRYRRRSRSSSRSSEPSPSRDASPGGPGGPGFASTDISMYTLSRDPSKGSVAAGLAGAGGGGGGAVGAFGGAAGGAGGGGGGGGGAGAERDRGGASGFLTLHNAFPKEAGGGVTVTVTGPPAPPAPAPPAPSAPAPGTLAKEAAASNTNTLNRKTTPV", "test": "Calcium flux assay (FLIPR), inhibition of glutamate response of GluA1o-γ8 channel", "assay_type": "cell-based", "conditions": "HEK293 cells stably expressing GRIA1o-CACNG8 fusion; 15 μM glutamate; negative log of the IC50 in molar", "from_the_text": "This assay was used to test compounds for their ability to inhibit TARP γ8 dependent AMPA receptor activity. The AMPA receptor is a non-selective cation channel activated by glutamate. Ionotropic glutamate receptors normally desensitize too rapidly to allow detectable calcium influx in a FLIPR assay (Strange et al. (2006). “Functional characterisation of homomeric ionotropic glutamate receptors GluR1-GluR6 in a fluorescence-based high throughput screening assay.” Comb Chem High Throughput Screen 9(2): 147-158). But, this desensitization is incomplete, and a substantial steady-state current remains in the sustained presence of glutamate (Cho et al. (2007). “Two families of TARP isoforms that have distinct effects on the kinetic properties of AMPA receptors and synaptic currents.” Neuron 55(6): 890-904). An in vitro assay was used to determine the potency of test compounds as inhibitors of the glutamate response of the channel formed by GluA1o-γ8. To ensure a 1:1 stoichiometry of GluA1o and γ8 subunits in the expressed channel, a fusion of the cDNAs for GRIA1o and CACNG8 was used. Following Shi et al (2009) “The stoichiometry of AMPA receptors and TARPs varies by neuronal cell type.” Neuron 62(5): 633-640), the C-terminus of the cDNA for GRIA1o was fused to the N-terminus of the cDNA for γ8. The linker sequence was QQQQQQQQQQEFAT. Channels expressed with this construct appear to have similar properties to channels formed by co-expression of GRIA1o with an excess of CACNG8 (Shi et al. 2009). A clonal cell line in HEK293 cells stably expressing this construct, with a geneticin selection marker, was generated for use in this assay.\nCell expressing the GRIA1o-CACNG8 fusion construct were grown in a monolayer in 96- or 384-well microtiter plates. They were washed with assay buffer (135 mM NaCl, 4 mM KCl, 3 mM CaCl2, 1 mM MgCl2, 5 mM glucose, 10 mM HEPES, pH 7.4, 300 mOs) using a Biotek EL405 plate washer. The cells were then loaded with a calcium-sensitive dye (Calcium-5 or Calcium-6, Molecular Devices) and the test compounds at a range of concentrations. Calcium flux following the addition of 15 μM glutamate was monitored using a Molecular Devices FLIPR Tetra. The fluorescence in each well was normalized to the fluorescence of negative and positive control wells. The negative control wells had no added compounds, and the positive control wells had been incubated with 10 μM CP465022 (a non-subtype-selective AMPA receptor antagonist) (Lazzaro et al. (2002). “Functional characterization of CP-465,022, a selective, noncompetitive AMPA receptor antagonist.” Neuropharmacology 42(2): 143-153). The responses to glutamate as functions of the test compound concentrations were fitted to a four-parameter logistic function. The fitted parameter corresponding to the midpoint was taken to be the potency of inhibition of the compound. The data in Table 3 below illustrates the observed potentcy for the compounds described herein. pIC50 refers to the negative log of the IC50 in molar.", "values": [
      {"smiles": "Cc1cc(-c2c3nc(C(F)F)cc(C(F)F)c3nn2C(C)C)cc2cn[nH]c12", "note": "[Example 40, 5,7-Bis(difluoromethyl)-2-isopropyl-3-(7-methyl-1H-indazol-5-yl)pyrazolo[4,3-b]pyridine]", "pIC50": 9.8},
      {"smiles": "Cc1cc(-c2c3nc(C(F)(F)F)ccc3nn2C)cc2cn[nH]c12", "note": "[Example 15, 2-Methyl-3-(7-methyl-1H-indazol-5-yl)-5-(trifluoromethyl)-2H-pyrazolo[4,3-b]pyridine]", "pIC50": 9.0},
      {"smiles": "Cn1nc2ccc(C(F)(F)F)nc2c1-c1cc(Cl)c2[nH]ncc2c1", "note": "[Example 16, 3-(7-Chloro-1H-indazol-5-yl)-2-methyl-5-(trifluoromethyl)-2H-pyrazolo[4,3-b]pyridine]", "pIC50": 9.5},
      {"smiles": "CC(C)n1nc2ccc(C(F)(F)F)nc2c1-c1cc(Cl)c2[nH]ncc2c1", "note": "[Example 24, 3-(7-Chloro-1H-indazol-5-yl)-2-isopropyl-5-(trifluoromethyl)-2H-pyrazolo[4,3-b]pyridine]", "pIC50": 10.2},
      {"smiles": "CC(C)n1nc2ccc(C(F)(F)F)nc2c1-c1ccc2[nH]c(=O)[nH]c2c1", "note": "[Example 5, 5-(2-Isopropyl-5-(trifluoromethyl)-2H-pyrazolo[4,3-b]pyridin-3-yl)-1,3-dihydro-2H-benzo[d]imidazol-2-one]", "pIC50": 7.6},
      {"smiles": "CC(C)n1nc2ccc(C(F)F)nc2c1-c1cc(Cl)c2c(c1)CC(=O)N2", "note": "[Example 36, 7-Chloro-5-(5-(difluoromethyl)-2-isopropyl-2H-pyrazolo[4,3-b]pyridin-3-yl)indolin-2-one]", "pIC50": 9.4},
      {"smiles": "CCn1nc2ccc(C(F)(F)F)nc2c1-c1cc(Cl)c2[nH]ncc2c1", "note": "[Example 20, 3-(7-Chloro-1H-indazol-5-yl)-2-ethyl-5-(trifluoromethyl)-2H-pyrazolo[4,3-b]pyridine]", "pIC50": 9.4},
      {"smiles": "FC(F)(F)c1ccc2nn(-c3ccccn3)c(-c3ccc4[nH]ncc4c3)c2n1", "note": "[Example 14, 3-(1H-Indazol-5-yl)-2-(pyridin-2-yl)-5-(trifluoromethyl)-2H-pyrazolo[4,3-b]pyridine]", "pIC50": 6.9},
      {"smiles": "Cc1cc(-c2c3nc(C(F)(F)F)ccc3nn2C)cc2c1NC(=O)C2", "note": "[Example 2, 7-Methyl-5-(2-methyl-5-(trifluoromethyl)-2H-pyrazolo[4,3-b]pyridin-3-yl)indolin-2-one]", "pIC50": 7.9},
      {"smiles": "Cc1cc(-c2c3nc(C(F)(F)F)ccc3nn2C2CCC2)cc2c1NC(=O)C2", "note": "[Example 25, 5-(2-Cyclobutyl-5-(trifluoromethyl)-2H-pyrazolo[4,3-b]pyridin-3-yl)-7-methylindolin-2-one]", "pIC50": 10.3},
      {"smiles": "FC(F)n1nc2ccc(C(F)(F)F)nc2c1-c1cc(Cl)c2[nH]ncc2c1", "note": "[Example 31, 3-(7-Chloro-1H-indazol-5-yl)-2-(difluoromethyl)-5-(trifluoromethyl)-2H-pyrazolo[4,3-b]pyridine]", "pIC50": 9.2},
      {"smiles": "Cn1nc2ccc(C(F)(F)F)nc2c1-c1ccc2[nH]c(=O)[nH]c2c1", "note": "[Example 1, 5-(2-Methyl-5-(trifluoromethyl)-2H-pyrazolo[4,3-b]pyridin-3-yl)-1,3-dihydro-2H-benzo[d]imidazol-2-one]", "pIC50": 6.5},
      {"smiles": "FC(F)(F)c1ccc2nn(C3CCC3)c(-c3cc(Cl)c4[nH]ncc4c3)c2n1", "note": "[Example 28, 3-(7-Chloro-1H-indazol-5-yl)-2-cyclobutyl-5-(trifluoromethyl)-2H-pyrazolo[4,3-b]pyridine]", "pIC50": 10.7},
      {"smiles": "CCn1nc2ccc(C(F)(F)F)nc2c1-c1cc(Cl)c2c(c1)CC(=O)N2", "note": "[Example 18, 7-Chloro-5-(2-ethyl-5-(trifluoromethyl)-2H-pyrazolo[4,3-b]pyridin-3-yl)indolin-2-one]", "pIC50": 8.6},
      {"smiles": "Cc1cc(-c2c3nc(C(F)(F)F)ccc3nn2C2CCC2)cc2cn[nH]c12", "note": "[Example 27, 2-Cyclobutyl-3-(7-methyl-1H-indazol-5-yl)-5-(trifluoromethyl)-2H-pyrazolo[4,3-b]pyridine]", "pIC50": 10.7},
      {"smiles": "O=C1Cc2cc(-c3c4nc(C(F)(F)F)ccc4nn3-c3ccccc3)ccc2N1", "note": "[Example 10, 5-(2-Phenyl-5-(trifluoromethyl)-2H-pyrazolo[4,3-b]pyridin-3-yl)indolin-2-one]", "pIC50": 8.2}
    ]}
  ]
}
